Reference: the supplement of paper PMC11208160

Assay: recombinant barcode read abundance after kanamycin selection (control-corrected) (log10(CPM+1)); higher = more efficient recombination; sequences stand for … in AGTGCAGAGAAAATCGGCCAGTTTTCTCTGCCTGCAGTCCGCATGCCGT…AGATTTATGCAGCGGACTGCCTTTCTCCCAAAGTGATAAACCGGACAGTATCATGGACCGGTTTTCCCGGTAATCCGTATTTGCAAGGTTGGTTTCACT; site = the 11-nt target
Outline: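 A vector carrying a T7-inducible recombinase and the last 73 bp of the bridge RNA received, by Gibson cloning, oligos encoding a promoter, target, barcode and the first 104 bridge RNA bases under J23119. The pooled constructs entered E. coli together with a donor plasmid by electroporation. Selection used chloramphenicol/ampicillin/kanamycin with 0.1 mM IPTG, with chloramphenicol/ampicillin LB agar as the control, each in two replicates. Recombination efficiency is the averaged, control-corrected counts-per-million of barcodes at recombinant junctions, reported as log10(CPM+1).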
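Note: IS621 recombinase and bridge RNA in Escherichia coli cells.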

| Sequence | recombinant barcode read abundance (log10) |
| --- | --- |
| GGCGGAGCTTGGGTTCTAACCTGTTGCCG (site CTGCACCCTTA) | 0.0863 |
| GGCGGAGCTTGGGTTCTAACCTGTTGCCG (site GGCGGAGCTCG) | 1.27 |
| GGCGGCTCTTGGGTTCTAACCTGTTGCCT (site ACATAAGCTTA) | 0.103 |
| GGCGGCTCTTGGGTTCTAACCTGTTGCCT (site GGCGGCTCTAG) | 1.42 |
| GGCTATGCTTGGGTTCTAACCTGTTGCCT (site GACTATGCTAG) | 0.143 |
| GGCTATGCTTGGGTTCTAACCTGTTGCCT (site GCCTATGCTAG) | 0.106 |
| GGCTATGCTTGGGTTCTAACCTGTTGCCT (site GGCTATGCTAG) | 0.175 |
| GGCTATGCTTGGGTTCTAACCTGTTGCCT (site GTCTATGCTAG) | 0.0729 |
| GGCTGAGCTTGGGTTCTAACCTGTTGCCT (site GACTGAGCTAC) | 0.0838 |
| GGCTGAGCTTGGGTTCTAACCTGTTGCCT (site GGCTGAGCTAG) | 0.856 |
| GGCTGATCTTGGGTTCTAACCTGTTGCCT (site AGCTGATCTAG) | 0.126 |
| GGCTGATCTTGGGTTCTAACCTGTTGCCT (site CGCTGATCTAG) | 0.309 |
| GGCTGATCTTGGGTTCTAACCTGTTGCCT (site GGCTGATCTAG) | 0.382 |
| GGCTGATCTTGGGTTCTAACCTGTTGCCT (site TGCTGATCTAG) | 0.216 |
| GGCTGCACTTGGGTTCTAACCTGTTGCCT (site GGCGGTACTAG) | 0.504 |
| GGCTGCACTTGGGTTCTAACCTGTTGCCT (site GGCTGCACTAG) | 1.17 |
| GGCTGGGCTTGGGTTCTAACCTGTTGCCG (site GGCTGGGCTCG) | 0.125 |
| GGCTGGGCTTGGGTTCTAACCTGTTGCCG (site GGTTGGGCTCT) | 0.194 |
| GGCTGTTCTTGGGTTCTAACCTGTTGCCT (site GACTGTTCTAG) | 0.195 |
| GGCTGTTCTTGGGTTCTAACCTGTTGCCT (site GCCTGTTCTAG) | 0.425 |
| GGCTGTTCTTGGGTTCTAACCTGTTGCCT (site GGCTGTTCTAG) | 0.334 |
| GGCTGTTCTTGGGTTCTAACCTGTTGCCT (site GTCTGTTCTAG) | 0.242 |

| Sequence | recombinant barcode read abundance (log10) |
| --- | --- |
| GGCTTCCCTTGGGTTCTAACCTGTTGCCT (site GGCATCCCTAG) | 0.299 |
| GGCTTCCCTTGGGTTCTAACCTGTTGCCT (site GGCCTCCCTAG) | 0.855 |
| GGCTTCCCTTGGGTTCTAACCTGTTGCCT (site GGCGTCCCTAG) | 0.141 |
| GGCTTCCCTTGGGTTCTAACCTGTTGCCT (site GGCTTCCCTAG) | 0.415 |
| GGCTTGACTTGGGTTCTAACCTGTTGCCT (site CCAGGTGCTCC) | 0.304 |
| GGCTTGACTTGGGTTCTAACCTGTTGCCT (site GGCTTGACTAG) | 0.694 |
| GGGAACACTTGGGTTCTAACCTGTTGCCA (site GGGAACACTTG) | 1.74 |
| GGGAACACTTGGGTTCTAACCTGTTGCCA (site GGGCACACTTG) | 0.11 |
| GGGAACCCTTGGGTTCTAACCTGTTGCAT (site AGGAACTCTAT) | 0.115 |
| GGGAACCCTTGGGTTCTAACCTGTTGCAT (site GGGAACCCTAT) | 1.96 |
| GGGACGACTTGGGTTCTAACCTGTTGCTT (site GGGACGACTAA) | 1.04 |
| GGGACGACTTGGGTTCTAACCTGTTGCTT (site GGGACGACTTA) | 0.0442 |
| GGGACTACTTGGGTTCTAACCTGTTGCCG (site ACTCGCTCTGT) | 0.0845 |
| GGGACTACTTGGGTTCTAACCTGTTGCCG (site GGGACTACTCG) | 0.876 |
| GGGATCCCTTGGGTTCTAACCTGTTGCGG (site CTCGAATCTAA) | 0.024 |
| GGGATCCCTTGGGTTCTAACCTGTTGCGG (site GGGATCCCTCC) | 2 |
| GGGCAGTCTTGGGTTCTAACCTGTTGCCG (site GGGCAGTCTCG) | 1.78 |
| GGGCAGTCTTGGGTTCTAACCTGTTGCCG (site GGGGCGTCTCG) | 0.14 |
| GGGCCCGCTTGGGTTCTAACCTGTTGCCT (site GGGCCCGCTAG) | 1.84 |
| GGGCCCGCTTGGGTTCTAACCTGTTGCCT (site GGGCCTGCTAG) | 0.154 |
| GGGCCTGCTTGGGTTCTAACCTGTTGCCT (site GGGCCCGCTAG) | 0.645 |
